These results are taken from US12241902B2, “Probes for detection of copper” (The Regents of the University of California, priority 2019, dated 2025).

Several values for one entry are separate records, joined by “and”; a condition that tells them apart may be missing. Equal entries are not always repeated.

Series [1] can be described thus: UV-vis absorption and emission measurements in aqueous buffer. The series is classed as physicochemical. The following applies: for molar extinction coefficient: PBS, glutathione 2 mM, PEG-400 40% v/v. The procedure: UV-vis absorption and emission measurements. FCP-1 stock solution in DMSO (5 mM) was prepared, aliquoted and stored at […]. For each spectroscopic measurement, a fresh aliquot was diluted to 500 μM by DMSO and further diluted with PBS containing 2 mM GSH/PEG-400 mixture (3:2, v/v) to prepare the sensing solution with 5 μM of FCP-1. The sensing solution was pre-incubated in a water bath at 37° C., and then [Cu(CH3CN)](PF6) in MeCN or other metal ions in H2O was added. The solution mixture was kept at 37° C. and taken out for UV-vis absorption or emission spectroscopic measurements in quartz cuvette at predetermined time intervals. Emission spectra were corrected using coumarin 153 as secondary emission standard (4). Photoluminescence quantum yield (PLQY) was determined using fluorescein in 0.1 M NaOH solution (0.95; λex=496 nm). FRET efficiency from the fluorescein moiety to rhodamine moiety of FCP-1 was estimated by [1−(PLQY of FCP-1/PLQY of FL-TPA)].
FCP-1 in PBS buffer containing glutathione (2 mM) and PEG-400 (40%, v/v) was evaluated. […] The first two absorption maxima corresponded to the absorption of the fluorescein moiety, as similar absorption maxima at 460 and 489 nm were found in the absorption spectra of FL-TPA (FIG. 4), whereas the lowest energy absorption at 552 nm originated from the rhodamine moiety (FIG. 4). […] Together with the significant contribution of the lower-energy fluorescence from the excitation at 450-500 nm, which is in the region of FL-TPA absorption (FIG. 6), the data support the occurrence of FRET from the fluorescein donor to the rhodamine acceptor. Using FL-TPA as a reference FRET donor compound (FIG. 7) with assumption that quenching of donor fluorescence originated only from the FRET process, the FRET efficiency in the FCP-1 cassette is estimated to be 84%.

Series [2] deals with labile Cu(I) pools in HEK 293T cells. Kind of series: Ratiometric confocal fluorescence imaging of labile Cu(I) in HEK 293T cells. It is filed as cell-based, Human. As to the method:
(A) Confocal fluorescence microscopy images of HEK 293T cells pretreated with solvent vehicle control or varying concentrations of CuCl2 in complete medium for 18 h. The cells were then washed with PBS, incubated with FCP-1 (5 μM) in DPBS for 45 min and then imaged. (B) Average cellular ratiometric emission ratios, represented by Fgreen/Forange, as determined from imaging experiments in (A) performed in triplicate. (C) Confocal fluorescence microscopy images of HEK 293T cells pretreated with solvent vehicle control or BCS (100 μM) in complete medium for 18 h. The cells were then washed with PBS, incubated with FCP-1 (5 μM) in DPBS for 45 min and then imaged. (D) Average cellular ratiometric emission ratios of FCP-1, Fgreen/Forange, as determined from experiments in (C) performed in triplicate. […] (E) ICP-MS measurement to determine total cellular ^63Cu levels in HEK293T cells under copper supplementation and depletion relative to the control (with normalization of different cell numbers by total cellular ^31P level). Error bars denote standard derivation (SD; n=3). *p<0.05, **p<0.01, ***p<0.001, ****p<0.0001 and *****p<0.00001.
Cell culture. Following cell cultures were grown: Human embryonic kidney (HEK 293T) cells were maintained in Dulbecco's Modified Eagle Medium (DMEM) supplemented with 10 vol % fetal bovine serum (FBS), 1 vol % GlutaMax (Gibco) and 1 vol % non-essential amino acids (NEAA, Gibco). Ctrl1^+/+ and Ctr1^−/− MEF cells were maintained in DMEM with 10 vol % FBS, 1 vol % non-essential amino acids, 1 vol % sodium pyruvate and 0.1 vol % 2-mercaptoethanol or DMEM supplemented with 10 vol % FBS and 1× Penicillin-Streptomycin. Human cervical epithelial carcinoma (HeLa) was maintained in DMEM medium supplemented with 1 vol % GlutaMAX and 10 vol % FBS. […]
Confocal fluorescence microscopy imaging. For confocal fluorescence imaging experiments of HEK293T, MEF Ctr1^+/+ and Ctr1^−/− and HeLa cells, the cells were plated on 8-well Lab Tek borosilicate chambered coverglass slides (Nunc), and allowed to grow to ca. 60% confluency before performing the cell imaging experiments. […] For quantification, a threshold value was set as background and the average intensity of the whole image was measured by ImageJ. […]
Given the metal and oxidation state-selective and sensitive response of FCP-1 to Cu(I), this probe was examined for ratiometric fluorescence imaging of labile Cu(I) pools in living cells. […] The observed increases and decreases in labile Cu(I) levels upon copper supplementation (CuCl2) and copper depletion (BCS) treatments, respectively, as measured by FCP-1 imaging were supported by complementary ICP-MS measurements of total copper levels showing expected increases and decreases in the total copper pool (FIG. 9, panel C).

On to `CC[N+](CC)=c1ccc2c(-c3ccccc3C(=O)O)c3ccc(N4CCN(Cc5cccc(CN(Cc6ccccn6)Cc6cccc(COc7ccc8c(-c9ccccc9C(=O)OC)c9ccc(=O)cc-9oc8c7)n6)n5)CC4)cc3oc-2c1` [FCP-1], for which, in series [1] (FL-TPA as reference FRET donor, 1−(PLQY of FCP-1/PLQY of FL-TPA)), the FRET efficiency came out at 84%. The absorption maxima in series [1] (PBS buffer containing glutathione (2 mM) and PEG-400 (40%, v/v)) was 465 nm and 493 nm and 552 nm. Besides, the molar extinction coefficient is given as 20,000 M^−1 cm^−1 in series [1] (at 465 nm), 22,100 M^−1 cm^−1 in series [1] (at 493 nm) and 40,000 M^−1 cm^−1 in series [1] (at 552 nm). Besides, the emission wavelength in series [1] (photoexcitation at 458 nm) is 526 nm and 576 nm. Besides, the “Fgreen/Forange ratio in copper-deficient cells compared to control” value in series [2] (BCS 100 μM pretreatment, FCP-1 5 μM) was “statistically significant decrease”. The “Fgreen/Forange ratio in copper-supplemented cells over vehicle control” value in series [2] (CuCl2 25-300 μM pretreatment, FCP-1 5 μM 45 min) was “statistically significant, dose-dependent increase”. Further, the “cell viability by nuclear staining” value in series [2] (FCP-1 5 μM, DRAQ-5 (FIGS. 10-11)) is reported as “remained viable”.
